Reference: patent US12227496B2 (BRISTOL-MYERS SQUIBB COMPANY, priority 2019, dated 2025)

Biological target: T1, human FXR (Homo sapiens, UniProt Q96RI1)
T1 construct: expressed in transfected cells; host or cells: HEK293 cells stably carrying a 5xGal4-response-element firefly luciferase reporter, transiently transfected with pcDNA3.1-Gal4-FXR
T1 sequence (Q96RI1 262-486 limits assumed): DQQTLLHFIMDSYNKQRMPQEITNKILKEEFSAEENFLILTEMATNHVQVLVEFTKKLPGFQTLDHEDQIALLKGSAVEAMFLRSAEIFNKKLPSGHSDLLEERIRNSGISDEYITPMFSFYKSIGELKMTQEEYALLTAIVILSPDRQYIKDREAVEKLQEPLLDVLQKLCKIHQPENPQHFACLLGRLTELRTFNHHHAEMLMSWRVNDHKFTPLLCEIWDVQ
Experiment: transient human FXR/Gal4-luciferase reporter assay
Assay type: cell-based
Settings: Gal4-hFXR LBD fusion, luciferase reporter in HEK293 cells; response relative to 8 μM GW-4064
Method: A Gal4-hFXR fusion construct reporter system was used as the primary assay to characterize compound activity. A construct including 5 copies of the Gal4 promoter response element upstream of a firefly luciferase reporter cDNA was stably expressed in HEK293 cells. This reporter cell line was maintained in Dulbecco's Modified Eagle's medium (DMEM; Gibco) supplemented with 1% penicillin-streptomycin (P/S) solution, 500 μg/mL Zeocin and 10% charcoal/dextran-treated fetal bovine serum (cs-FBS) at 37° C. in a humidified 5% CO2 atmosphere. […] The day prior to transfection, the reporter cells in culture are detached from the plate with trypsin and plated into a T75 flask at a sufficient density to achieve approximately 90% confluence the next morning. […] The mixture is further diluted with 10 mL of a solution comprised of DMEM, 10% cs-FBS, and 1% P/S immediately prior to transferring to the cells. The maintenance culture media is aspirated from the cells and the final transfection mixture is added before the cells are incubated overnight at 37° C. in a humidified 5% CO2 atmosphere. This protocol can be scaled up, and the transiently transfected cells can be cryopreserved in an assay-ready format. For compound testing, 100 nL of the compounds (serial dilutions in DMSO) are dispensed with an Echo acoustic dispenser (Labcyte) into the wells of a Corning/Costar clear bottom 384-well white plate. The transfected cells are harvested, counted, and diluted such that 10-25,000 cells in 25 μL are plated into each well of the 384-well compound assay plate. The compound-treated cells are incubated overnight at 37° C. in a humidified 5% CO2 atmosphere. The next morning 25 μL of Steady-Glo (Promega) are added to each well of the plate, the mixture is incubated for 15 min. with shaking, and luminescence is measured on an Envision (Perkin Elmer) plate reader.

SMILES | EC50
O=C(C1CCCOC1)N(CC12CCC(c3nc(C4CC4)no3)(CC1)CC2)c1cccc(-c2nc(C3CC3)no2)c1 (racemic) [Example 16, N-((4-(3-cyclopropyl-1,2,4-oxadiazol-5-yl)bicyclo[2.2.2]octan-1-yl)methyl)-N-(3-(3-cyclopropyl-1,2,4-oxadiazol-5-yl)phenyl)tetrahydro-2H-pyran-3-carboxamide] | 0.226 µM
O=C(C1CCCOC1)N(CC12CCC(c3nc(C4CC4)no3)(CC1)CC2)c1cccc(-c2cnc(C3CC3)o2)c1 (racemic) [Example 25, N-((4-(3-cyclopropyl-1,2,4-oxadiazol-5-yl)bicyclo[2.2.2]octan-1-yl)methyl)-N-(3-(2-cyclopropyloxazol-5-yl)phenyl)tetrahydro-2H-pyran-3-carboxamide] | 0.074 µM
CCCc1ncc(-c2cccc(N(CC34CCC(c5nc(C6CC6)no5)(CC3)CC4)C(=O)C3CCCOC3)c2)o1 (racemic) [Example 30, N-((4-(3-cyclopropyl-1,2,4-oxadiazol-5-yl)bicyclo[2.2.2]octan-1-yl)methyl)-N-(3-(2-propyloxazol-5-yl)phenyl)tetrahydro-2H-pyran-3-carboxamide] | 0.145 µM
O=C(C1CCCOC1)N(CC12CCC(c3nc(C4CC4)no3)(CC1)CC2)c1cccc(-c2nnc(C3CC3)o2)c1 (racemic) [Example 55, N-((4-(3-cyclopropyl-1,2,4-oxadiazol-5-yl)bicyclo[2.2.2]octan-1-yl)methyl)-N-(3-(5-cyclopropyl-1,3,4-oxadiazol-2-yl)phenyl)tetrahydro-2H-pyran-3-carboxamide] | 0.929 µM
CC1(C)CCCN(C(=O)N(CC23CCC(c4nc(C5CC5)no4)(CC2)CC3)c2cccc(-c3nc(C4CC4)no3)c2)C1 (racemic) [Example 62, N-((4-(3-cyclopropyl-1,2,4-oxadiazol-5-yl)bicyclo[2.2.2]octan-1-yl)methyl)-N-(3-(3-cyclopropyl-1,2,4-oxadiazol-5-yl)phenyl)-3,3-dimethylpiperidine-1-carboxamide] | 3.81 µM
O=C(C1CCCOC1)N(CC12CCC(c3nc(C4CC4)cs3)(CC1)CC2)c1cccc(-c2nc(C3CC3)no2)c1 (racemic) [Example 66, N-(3-(3-cyclopropyl-1,2,4-oxadiazol-5-yl)phenyl)-N-((4-(4-cyclopropylthiazol-2-yl)bicyclo[2.2.2]octan-1-yl)methyl)tetrahydro-2H-pyran-3-carboxamide] | 1.25 µM
O=C(C1CCCOC1)N(CC12CCC(c3nc(C4CC4)no3)(CC1)CC2)c1cccc(-c2nc3cc(F)ccc3o2)c1 (racemic) [Example 92, N-((4-(3-cyclopropyl-1,2,4-oxadiazol-5-yl)bicyclo[2.2.2]octan-1-yl)methyl)-N-(3-(5-fluorobenzo[d]oxazol-2-yl)phenyl)tetrahydro-2H-pyran-3-carboxamide] | 0.589 µM
COC(=O)C1CC1c1cccc(N(CC23CCC(c4nc(C)no4)(CC2)CC3)C(=O)C2CCCCC2)c1 (single isomer, unassigned) [Example 101, Methyl 2-(3-(N-((4-(3-methyl-1,2,4-oxadiazol-5-yl)bicyclo[2.2.2]octan-1-yl)methyl)cyclohexanecarboxamido)phenyl)cyclopropane-1-carboxylate] | 0.245 µM
COC(=O)C1CC1c1cccc(N(CC23CCC(c4nc(C)no4)(CC2)CC3)C(=O)C2CCCCC2)c1 (single isomer, unassigned) [Example 102, Methyl 2-(3-(N-((4-(3-methyl-1,2,4-oxadiazol-5-yl)bicyclo[2.2.2]octan-1-yl)methyl)cyclohexanecarboxamido)phenyl)cyclopropane-1-carboxylate] | 0.518 µM

Continued by falling EC50, values first:

EC50 | SMILES
6.67 µM | COc1cccc(-c2cccc(N(C(=O)C3CCCCC3)C(C)C34CCC(c5nc(C)no5)(CC3)CC4)c2)c1 (single isomer, unassigned) [Example 95, N-(3′-methoxy-[1,1′-biphenyl]-3-yl)-N-(1-(4-(3-methyl-1,2,4-oxadiazol-5-yl)bicyclo[2.2.2]octan-1-yl)ethyl)cyclohexanecarboxamide]
4.1 µM | Cn1cc(-c2cccc(N(CC34CCC(c5nc(C6CC6)no5)(CC3)CC4)C(=O)C3CCCOC3)c2)nc1C1CC1 (racemic) [Example 68, N-((4-(3-cyclopropyl-1,2,4-oxadiazol-5-yl)bicyclo[2.2.2]octan-1-yl)methyl)-N-(3-(2-cyclopropyl-1-methyl-1H-imidazol-4-yl)phenyl)tetrahydro-2H-pyran-3-carboxamide]
3.94 µM | COc1cccc(-c2cccc(N(C(=O)C3CCCCC3)C(C)C34CCC(c5nc(C)no5)(CC3)CC4)c2)c1 (single isomer, unassigned) [Example 94, N-(3′-methoxy-[1,1′-biphenyl]-3-yl)-N-(1-(4-(3-methyl-1,2,4-oxadiazol-5-yl)bicyclo[2.2.2]octan-1-yl)ethyl)cyclohexanecarboxamide]
1.5 µM | CCc1noc(-c2cccc(N(C(=O)C3CCCCC3)C(C)C34CCC(c5nc(C)no5)(CC3)CC4)c2)n1 (single isomer, unassigned) [Example 70, N-(3-(3-ethyl-1,2,4-oxadiazol-5-yl)phenyl)-N-(1-(4-(3-methyl-1,2,4-oxadiazol-5-yl)bicyclo[2.2.2]octan-1-yl)ethyl)cyclohexanecarboxamide]
1.33 µM | CCn1cc(-c2cccc(N(CC34CCC(c5nc(C6CC6)no5)(CC3)CC4)C(=O)C3CCCOC3)c2)oc1=O (racemic) [Example 52, N-((4-(3-cyclopropyl-1,2,4-oxadiazol-5-yl)bicyclo[2.2.2]octan-1-yl)methyl)-N-(3-(3-ethyl-2-oxo-2,3-dihydrooxazol-5-yl)phenyl)tetrahydro-2H-pyran-3-carboxamide]
0.74 µM | O=C(N1CCCC(CO)C1)N(CC12CCC(c3nc(C4CC4)no3)(CC1)CC2)c1cccc(-c2nc(C3CC3)no2)c1 (racemic) [Example 65, N-((4-(3-cyclopropyl-1,2,4-oxadiazol-5-yl)bicyclo[2.2.2]octan-1-yl)methyl)-N-(3-(3-cyclopropyl-1,2,4-oxadiazol-5-yl)phenyl)-3-(hydroxymethyl)piperidine-1-carboxamide]
0.547 µM | CCc1noc(-c2cccc(N(C(=O)C3CCCCC3)C(C)C34CCC(c5nc(C)no5)(CC3)CC4)c2)n1 (single isomer, unassigned) [Example 71, N-(3-(3-ethyl-1,2,4-oxadiazol-5-yl)phenyl)-N-(1-(4-(3-methyl-1,2,4-oxadiazol-5-yl)bicyclo[2.2.2]octan-1-yl)ethyl)cyclohexanecarboxamide]
0.303 µM | CCOc1ccc(-c2cccc(N(CC34CCC(c5nc(C(C)(C)C)no5)(CC3)CC4)C(=O)C3CCC(OC)CC3)c2)cc1 (single isomer, unassigned) [Example 145, N-((4-(3-(tert-butyl)-1,2,4-oxadiazol-5-yl)bicyclo[2.2.2]octan-1-yl)methyl)-N-(4′-ethoxy-[1,1′-biphenyl]-3-yl)-4-methoxycyclohexane-1-carboxamide]
0.256 µM | Cn1nc(C23CCC(CN(C(=O)C4CCCOC4)c4cccc(-c5nc(C6CC6)no5)c4)(CC2)CC3)cc1C1CC1 (racemic) [Example 67, N-(3-(3-cyclopropyl-1,2,4-oxadiazol-5-yl)phenyl)-N-((4-(5-cyclopropyl-1-methyl-1H-pyrazol-3-yl)bicyclo[2.2.2]octan-1-yl)methyl)tetrahydro-2H-pyran-3-carboxamide]
